In patent US8637525B2, “Compounds for the reduction of beta-amyloid production” (Bristol-Myers Squibb Company, priority 2009, dated 2014):
Counter-ions that a name gives are not always drawn. Like-named read-outs stand apart in the source and are kept apart here.

System: Aβ1-42 production
Assay: Cellular assay for inhibition of Aβ1-42 production (H4 APP751 SWE clone 8.20)
Type: cell-based
Conditions: H4 APP751 SWE clone 8.20 cells, 19 h incubation
Procedure, shortened: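 Inhibition values are IC50s fitted to Viewlux counts after a 19 h compound exposure at 37 °C. Aβ42 was captured by the neoepitope-specific antibody 565 (0.8 ng/well) paired with N-terminal 26D6 (75 ng/well), incubated overnight at 4 °C in pH 7.4 Tris-HCl buffer containing 0.2% BSA.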

[1] = 19 h, class symbols, read-out: Activity Rating (Aβ42 cellular IC50)
[2] = 19 h, read-out: Activity Rating (Aβ42 cellular IC50), numeric value
[3] = class symbols, read-out: Activity Rating (Aβ42 cellular IC50)

**Q.** With `COc1cc(Nc2nc3c(c(N(C)C)n2)CCC3c2ccc(Cl)cc2)ccc1-n1cnc(Cl)c1` (stereo not drawn) [Example 92, N^2-(4-(4-Chloro-1H-imidazol-1-yl)-3-methoxyphenyl)-7-(4-chlorophenyl)-N^4,N^4-dimethyl-6,7-dihydro-5H-cyclopenta[d]pyrimidine-2,4-diamine] as the compound, how does the IC50 [1] read?
**A.** 10 to 100 nM

**Q.** How did the IC50 [2] turn out when `COc1cc(Nc2nc3c(c(N4CC(F)(F)C4)n2)CCC3c2ccc(Cl)cc2)ccc1-n1cnc(Cl)c1` (stereo not drawn) [Example 93, N-(4-(4-Chloro-1H-imidazol-1-yl)-3-methoxyphenyl)-7-(4-chlorophenyl)-4-(3,3-difluoroazetidin-1-yl)-6,7-dihydro-5H-cyclopenta[d]pyrimidin-2-amine] was run?
**A.** 20 nM

**Q.** Which IC50 [3] does the source give for `CNc1nc(Nc2ccc(-n3cnc(Cl)c3)c(OC)c2)nc2c1CCC2c1cc(F)cc(F)c1` (stereo not drawn) [Example 102A, N^2-(4-(4-Chloro-1H-imidazol-1-yl)-3-methoxyphenyl)-7-(3,5-difluorophenyl)-N^4-methyl-6,7-dihydro-5H-cyclopenta[d]pyrimidine-2,4-diamine] here?
**A.** 1.5 to 9.9 nM

**Q.** For `CNc1nc(Nc2ccc(-n3cnc(Cl)c3)c(OC)c2)nc2c1CCC2c1cc(F)cc(F)c1` (stereo not drawn) [Example 102B, N^2-(4-(4-Chloro-1H-imidazol-1-yl)-3-methoxyphenyl)-7-(3,5-difluorophenyl)-N^4-methyl-6,7-dihydro-5H-cyclopenta[d]pyrimidine-2,4-diamine], which IC50 [3] is on record?
**A.** 10 to 100 nM

**Q.** With `CNc1nc(Nc2ccc(-n3ncnc3C)c(F)c2)nc2c1CCC2c1cc(F)c(F)c(F)c1` (stereo not drawn) [Example 104, N^2-(3-fluoro-4-(5-methyl-1H-1,2,4-triazol-1-yl)phenyl)-N^4-methyl-7-(3,4,5-trifluorophenyl)-6,7-dihydro-5H-cyclopenta[d]pyrimidine-2,4-diamine] as the compound, how does the IC50 [1] read?
**A.** 10 to 100 nM

**Q.** For `CNc1nc(Nc2cnc(-n3cnc(Cl)c3)c(OC)c2)nc2c1CCC2c1cc(F)c(F)c(F)c1` (stereo not drawn) [Example 105, N^2-(6-(4-Chloro-1H-imidazol-1-yl)-5-methoxypyridin-3-yl)-N^4-methyl-7-(3,4,5-trifluorophenyl)-6,7-dihydro-5H-cyclopenta[d]pyrimidine-2,4-diamine], which IC50 [2] is on record?
**A.** 8.8 nM

**Q.** With `CNc1nc(Nc2ccc(-n3cnc(Cl)n3)c(OC)c2)nc2c1CCC2c1cc(F)c(F)c(F)c1` (stereo not drawn) [Example 106, N^2-(4-(3-chloro-1H-1,2,4-triazol-1-yl)-3-methoxyphenyl)-N^4-methyl-7-(3,4,5-trifluorophenyl)-6,7-dihydro-5H-cyclopenta[d]pyrimidine-2,4-diamine] as the compound, how does the IC50 [1] read?
**A.** 10 to 100 nM

**Q.** How did the IC50 [2] turn out when `COc1cc(Nc2nc3c(c(N4CC(F)(F)C4)n2)CCC3c2cc(F)c(F)c(F)c2)ccc1-n1cnc(Cl)c1` (stereo not drawn) [Example 108, N-(4-(4-Chloro-1H-imidazol-1-yl)-3-methoxyphenyl)-4-(3,3-difluoroazetidin-1-yl)-7-(3,4,5-trifluorophenyl)-6,7-dihydro-5H-cyclopenta[d]pyrimidin-2-amine] was run?
**A.** 20 nM

**Q.** Which IC50 [3] does the source give for `CCNc1nc(Nc2ccc(-n3cnc(Cl)c3)c(OC)c2)nc2c1CCC2(C)c1ccccc1` (stereo not drawn) [Example 110A, N2-(4-(4-chloro-1H-imidazol-1-yl)-3-methoxyphenyl)-N4-ethyl-7-methyl-7-phenyl-6,7-dihydro-5H-cyclopenta[d]pyrimidine-2,4-diamine] here?
**A.** 1.5 to 9.9 nM

**Q.** Which IC50 [3] does the source give for `CCNc1nc(Nc2ccc(-n3cnc(Cl)c3)c(OC)c2)nc2c1CCC2(C)c1ccccc1` (stereo not drawn) [Example 110B, N2-(4-(4-chloro-1H-imidazol-1-yl)-3-methoxyphenyl)-N4-ethyl-7-methyl-7-phenyl-6,7-dihydro-5H-cyclopenta[d]pyrimidine-2,4-diamine] here?
**A.** 10 to 100 nM

**Q.** For `C=CCC1(c2ccccc2)CCc2c(NCC)nc(Nc3ccc(-n4cnc(Cl)c4)c(OC)c3)nc21` (stereo not drawn) [Example 111, N2-(4-(4-chloro-1H-imidazol-1-yl)-3-methoxyphenyl)-N4-ethyl-7-allyl-7-phenyl-6,7-dihydro-5H-cyclopenta[d]pyrimidine-2,4-diamine], which IC50 [2] is on record?
**A.** 35 nM

**Q.** `CCNc1nc(Nc2ccc(-n3cnc(Cl)c3)c(OC)c2)nc2c1COCC2c1cc(F)cc(F)c1` (stereo not drawn) [Example 112A, N2-(4-(4-chloro-1H-imidazol-1-yl)-3-methoxyphenyl)-8-(3,5-difluorophenyl)-N4-ethyl-7,8-dihydro-5H-pyrano[4,3-d]pyrimidine-2,4-diamine] was tested. Which IC50 [3] did it give?
**A.** 1.5 to 9.9 nM

**Q.** For `CCNc1nc(Nc2ccc(-n3cnc(Cl)c3)c(OC)c2)nc2c1COCC2c1cc(F)cc(F)c1` (stereo not drawn) [Example 112B, N2-(4-(4-chloro-1H-imidazol-1-yl)-3-methoxyphenyl)-8-(3,5-difluorophenyl)-N4-ethyl-7,8-dihydro-5H-pyrano[4,3-d]pyrimidine-2,4-diamine], which IC50 [3] is on record?
**A.** 10 to 100 nM

**Q.** How did the IC50 [3] turn out when `CCNc1nc(Nc2ccc(-n3cnc(Cl)c3)c(OC)c2)nc2c1COCC2c1ccc(F)c(F)c1` (stereo not drawn) [Example 113A, N2-(4-(4-chloro-1H-imidazol-1-yl)-3-methoxyphenyl)-8-(3,4-difluorophenyl)-N4-ethyl-7,8-dihydro-5H-pyrano[4,3-d]pyrimidine-2,4-diamine] was run?
**A.** 1.5 to 9.9 nM

**Q.** For `CCNc1nc(Nc2ccc(-n3cnc(Cl)c3)c(OC)c2)nc2c1COCC2c1ccc(F)c(F)c1` (stereo not drawn) [Example 113B, N2-(4-(4-chloro-1H-imidazol-1-yl)-3-methoxyphenyl)-8-(3,4-difluorophenyl)-N4-ethyl-7,8-dihydro-5H-pyrano[4,3-d]pyrimidine-2,4-diamine], which IC50 [3] is on record?
**A.** 10 to 100 nM

**Q.** With `COc1cc(Nc2nc3c(c(N4CC(F)(F)C4)n2)COCC3c2ccc(F)c(F)c2)ccc1-n1cnc(Cl)c1` (stereo not drawn) [Example 114A, N-(4-(4-chloro-1H-imidazol-1-yl)-3-methoxyphenyl)-4-(3,3-difluoroazetidin-1-yl)-8-(3,4-difluorophenyl)-7,8-dihydro-5H-pyrano[4,3-d]pyrimidin-2-amine] as the compound, how does the IC50 [3] read?
**A.** 10 to 100 nM

**Q.** With `COc1cc(Nc2nc3c(c(N4CC(F)(F)C4)n2)COCC3c2ccc(F)c(F)c2)ccc1-n1cnc(Cl)c1` (stereo not drawn) [Example 114B, N-(4-(4-chloro-1H-imidazol-1-yl)-3-methoxyphenyl)-4-(3,3-difluoroazetidin-1-yl)-8-(3,4-difluorophenyl)-7,8-dihydro-5H-pyrano[4,3-d]pyrimidin-2-amine] as the compound, how does the IC50 [3] read?
**A.** 100 to 1000 nM

**Q.** `CNc1nc(Nc2ccc(-n3cnc(Cl)c3)c(OC)c2)nc2c1COCC2c1ccc(F)c(F)c1` (stereo not drawn) [Example 115A, N2-(4-(4-chloro-1H-imidazol-1-yl)-3-methoxyphenyl)-8-(3,4-difluorophenyl)-N4-methyl-7,8-dihydro-5H-pyrano[4,3-d]pyrimidine-2,4-diamine] was tested. Which IC50 [3] did it give?
**A.** 1.5 to 9.9 nM

**Q.** Which IC50 [3] does the source give for `CNc1nc(Nc2ccc(-n3cnc(Cl)c3)c(OC)c2)nc2c1COCC2c1ccc(F)c(F)c1` (stereo not drawn) [Example 115B, N2-(4-(4-chloro-1H-imidazol-1-yl)-3-methoxyphenyl)-8-(3,4-difluorophenyl)-N4-methyl-7,8-dihydro-5H-pyrano[4,3-d]pyrimidine-2,4-diamine] here?
**A.** 10 to 100 nM

**Q.** Which IC50 [3] does the source give for `CCNc1nc(Nc2ccc(-n3ncnc3C)c(F)c2)nc2c1COCC2c1ccc(F)c(F)c1` (stereo not drawn) [Example 116A, 8-(3,4-difluorophenyl)-N4-ethyl-N2-(3-fluoro-4-(5-methyl-1H-1,2,4-triazol-1-yl)phenyl)-7,8-dihydro-5H-pyrano[4,3-d]pyrimidine-2,4-diamine] here?
**A.** 1.5 to 9.9 nM

**Q.** For `CCNc1nc(Nc2ccc(-n3ncnc3C)c(F)c2)nc2c1COCC2c1ccc(F)c(F)c1` (stereo not drawn) [Example 116B, 8-(3,4-difluorophenyl)-N4-ethyl-N2-(3-fluoro-4-(5-methyl-1H-1,2,4-triazol-1-yl)phenyl)-7,8-dihydro-5H-pyrano[4,3-d]pyrimidine-2,4-diamine], which IC50 [3] is on record?
**A.** 100 to 1000 nM

**Q.** With `COc1cc(Nc2nc(N[C@H](C)C3CC3)c3c(n2)C(c2ccc(C(F)(F)F)cc2)COC3)ccc1-n1cnc(Cl)c1` (stereo partly drawn) [Example 117, N2-(4-(4-chloro-1H-imidazol-1-yl)-3-methoxyphenyl)-N4-((R)-1-cyclopropylethyl)-8-(4-(trifluoromethyl)phenyl)-7,8-dihydro-5H-pyrano[4,3-d]pyrimidine-2,4-diamine, TFA] as the compound, how does the IC50 [2] read?
**A.** 45 nM

**Q.** Which IC50 [3] does the source give for `COc1cc(Nc2nc(N[C@H](C)C3CC3)c3c(n2)C(c2ccc(C(F)(F)F)cc2)COC3)ccc1-n1cnc(Cl)c1` (stereo partly drawn) [Example 117A, N2-(4-(4-chloro-1H-imidazol-1-yl)-3-methoxyphenyl)-N4-((R)-1-cyclopropylethyl)-8-(4-(trifluoromethyl)phenyl)-7,8-dihydro-5H-pyrano[4,3-d]pyrimidine-2,4-diamine] here?
**A.** 10 to 100 nM

**Q.** How did the IC50 [3] turn out when `COc1cc(Nc2nc(N[C@H](C)C3CC3)c3c(n2)C(c2ccc(C(F)(F)F)cc2)COC3)ccc1-n1cnc(Cl)c1` (stereo partly drawn) [Example 117B, N2-(4-(4-chloro-1H-imidazol-1-yl)-3-methoxyphenyl)-N4-((R)-1-cyclopropylethyl)-8-(4-(trifluoromethyl)phenyl)-7,8-dihydro-5H-pyrano[4,3-d]pyrimidine-2,4-diamine] was run?
**A.** 100 to 1000 nM

**Q.** For `CCNc1nc(Nc2ccc(-n3cnc(Cl)c3)c(OC)c2)nc2c1COCC2c1ccc(C(F)(F)F)cc1` (stereo not drawn) [Example 118A, N2-(4-(4-chloro-1H-imidazol-1-yl)-3-methoxyphenyl)-N4-ethyl-8-(4-(trifluoromethyl)phenyl)-7,8-dihydro-5H-pyrano[4,3-d]pyrimidine-2,4-diamine], which IC50 [3] is on record?
**A.** 1.5 to 9.9 nM

**Q.** With `CCNc1nc(Nc2ccc(-n3cnc(Cl)c3)c(OC)c2)nc2c1COCC2c1ccc(C(F)(F)F)cc1` (stereo not drawn) [Example 118B, N2-(4-(4-chloro-1H-imidazol-1-yl)-3-methoxyphenyl)-N4-ethyl-8-(4-(trifluoromethyl)phenyl)-7,8-dihydro-5H-pyrano[4,3-d]pyrimidine-2,4-diamine] as the compound, how does the IC50 [3] read?
**A.** 100 to 1000 nM

**Q.** How did the IC50 [2] turn out when `CCNc1nc(Nc2ccc(-n3ncnc3C)c(F)c2)nc2c1COCC2c1ccc(C(F)(F)F)cc1` (stereo not drawn) [Example 119A, N4-ethyl-N2-(3-fluoro-4-(5-methyl-1H-1,2,4-triazol-1-yl)phenyl)-8-(4-(trifluoromethyl)phenyl)-7,8-dihydro-5H-pyrano[4,3-d]pyrimidine-2,4-diamine] was run?
**A.** 7.4 nM
